# Test results as given in patent US20110263046A1, “Methods of identification of novel ligands for modulation of orphan nuclear receptor RAR-related orphan receptor-gamma (NR1F3) activity” (PHENEX PHARMACEUTICALS AG, priority 2008, published 2011).
# “Also recorded” adds a separate entry of the source.
# Key:
# [1] = test system: IL-17 production by peripheral blood human mononuclear cells (PBMCs); assay: PBMC stimulation and IL-17 secretion assay (ELISA); format: cell-based; details: 72 h; for mean concentration of IL-17: anti-CD3/anti-CD28 stimulated PBMCs
# Protocol: Cryopreserved peripheral blood human mononuclear cells (PBMCs) were used for the experiments. The cells were thawed in CTL-Anti-Aggregate-Wash™ solution and washed once in CTL Wash™ medium with benzonase. PBMCs, suspended in CTL serum-free test media (CTL-Test™ Medium), were plated into 96-well BD BioCoat Anti-Human CD3 T-Cell activation plate at a total of 1×10^5 cells/well in triplicate. The cells were incubated with anti-CD28 (2 μg/ml) in the absence or presence of LE540, LE135 and Am580 at different concentrations for 72 h at 37° C. with 5% CO2. The compounds were added at the time 0. The supernatants were harvested and assayed for IL-17 according to the protocol from the corresponding ELISA kit (Invitrogen). The detection range was 15.6-1,000.0 pg/ml. Data are presented as means±s.d. values.
# In the control experiments PBMCs were stimulated with anti-CD3 (plate) and anti-CD28 in the presence of 0.1% DMSO. The mean concentration of IL-17 was 1,003.36±45.18 pg/ml. In contrast, the concentration of IL-17 in non stimulated cells was under the detection range (<15.6 pg/ml). […] The compounds were added to the cells at time 0 together with the anti-CD28 mAb. […] The lower concentration of LE540 (0.1 μM) was also very potent in PBMCs. […] The amount of IL-17 protein was down regulated after treatment of cells with 3, 1, and 0.3 μM of LE135 (FIG. 3).
# [2] = target: T1, RORgamma ligand binding domain (Homo sapiens, UniProt P51449); assay: TR-FRET ligand sensing assay: RORγ-LBD / coactivator peptide interaction; format: biochemical; design: made in house; host or cells: E. coli BL21(DE3); details: for IC50: antagonistic
# T1 sequence (P51449 267-518): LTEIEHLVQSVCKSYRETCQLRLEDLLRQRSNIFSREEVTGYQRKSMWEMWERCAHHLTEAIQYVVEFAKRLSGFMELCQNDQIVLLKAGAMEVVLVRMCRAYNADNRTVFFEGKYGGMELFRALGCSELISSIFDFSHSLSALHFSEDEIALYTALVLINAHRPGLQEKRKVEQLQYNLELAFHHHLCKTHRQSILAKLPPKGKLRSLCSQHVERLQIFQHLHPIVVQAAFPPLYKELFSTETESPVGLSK
# Protocol: As described in more detail in the examples, a GST-RORgamma-LBD fusion protein is expressed and purified from E. coli. The TR-FRET assays were performed in a final volume of 25 μl in individual wells of a 384 well plate using a Tris-based buffer system: 10-50 mM Tris-HCl pH 7.9; 50-100 mM KCl, 1-10 mM MgCl2; 20-100 ng/μl BSA), containing 20-60 ng/well recombinantly expressed RORγ-LBD fused to GST, 200-600 nM N-terminally biotinylated peptide (e.g. derived from SRC-1 or TIF-2), 50-500 ng/well Streptavidin-xIAPC conjugate (Prozyme) and 2-20 ng/well Eu W1024-antiGST (Perkin Elmer).
# The human RORg ligand binding domain (LBD) was expressed in E. coli strain BL21(DE3) as an N-terminal glutathione-S-transferase (GST) tagged fusion protein. The DNA encoding the RORg ligand binding domain was cloned into vector pDEST15 (Invitrogen). […] Expression in pDEST15 is controlled by a IPTG inducible T7 promoter and cloning and transformation of E. coli was done essentially according to standard protocols known to persons skilled in the art and supplied by Invitrogen.
# Determination of the interaction of a ligand with the human RORgamma ligand binding domain was done by using a Ligand Sensing Assay based on Time-resolved Fluorescence Energy Transfer (TR-FRET).
# This method measures the ability of putative ligands to modulate the interaction between the purified bacterial expressed RORg ligand binding domain (LBD) and synthetic N-terminally biotinylated peptides which are derived from nuclear receptor coactivator proteins such as but not limited to SRC1 (NcoA1), SRC2 (NcoA2,TIF2), SRC3 (NcoA3), PGC1α, PGC1β, CBP, GRIP1, TRAP220, RIP140.
# (§1) The ligand binding domain (LBD) of RORγ was expressed as fusion protein with GST in […] cells using the vector pDEST15. Cells were lysed by lysozyme-treatment and sonication, and the fusion proteins purified over glutathione sepharose (Pharmacia) according to the manufacturers instructions. For screening of compounds for their influence on the RORγ-peptide interaction, the LANCE technology (Perkin Elmer) was applied. This method relies on the binding dependent energy transfer from a donor to an acceptor fluorophor attached to the binding partner of interest. For ease of handling and reduction of background from compound fluorescence LANCE technology makes use of generic fluorophore labels and time resolved detection assays were done in a final volume of 25 μl in a 384 well plate, in a Tris-based buffer (20 mM Tris-HCl pH 7.9; 60 mM KCl, 5 mM MgCl2; 35 ng/μl BSA), containing 20-60 ng/well recombinantly expressed RORγ-LBD fused to GST, 200-600 nM N-terminally biotinylated peptide, 200 ng/well Streptavidin-xIAPC conjugate (Prozyme) and 6-10 ng/well Eu W1024-antiGST (Perkin Elmer). DMSO content of the samples was kept at 1%. After generation of the assay mix the potentially RORγ modulating ligands were diluted. After his step, the assay was equilibrated for one hour in the dark at room temperature in FIA-plates black 384 well (Greiner). The LANCE signal was detected by a Perkin Elmer VICTOR2V™ Multilabel Counter. […] Ligands that promote the complex formation induce a concentration-dependent increase in time-resolved fluorescent signal.
# Equation: Sigmoidal dose-response (variable slope) Y=Bottom+(Top-Bottom)/(1+10̂((LogEC50-X)*HillSlope))
# This is identical to the “four parameter logistic equation”. The EC50 or IC50 values are calculated using this equation.
# [3] = target: T1, RORgamma ligand binding domain; assay: Radioligand displacement assay (3H-25-hydroxycholesterol); design: made in house; host or cells: E. coli BL21 (DE3); details: FIG. 1; for apparent potency and efficacy of displacement: comparison among ligands; for displacement of 3H-25-hydroxycholesterol bound to RORgamma-LBD: dose dependent, radioligand at saturating concentration (500 nM)
# Text: This method measures the ability of putative ligands to displace a radioactively labeled compound that is bound to the RORgamma ligand binding domain.
# The ligand binding domain (LBD) of RORγ was expressed as fusion protein with GST in BL-21 cells using the vector pDEST15. Cells were lysed by lysozyme-treatment and sonication, and the fusion proteins purified over glutathione sepharose (Pharmacia) according to the manufacturers instructions. For screening of compounds for their ability to bind to RORγ, commercially available 25-26,27-[…]-hydroxycholesterol
# (Perkin Elmer, NET674250UC) was bound to the protein and displacement by non radioactive ligands was observed. The assay was done in a final volume of 100 μl in a 96-well glutathione and scintillant coated microplate (Perkin Elmer, SMP109001PK). […] Compounds to be tested were titrated and added to the protein-radioligand mix. DMSO content of the samples was kept at 1%. After addition of the compounds, the assay was equilibrated for 30 min at room temperature. After this incubation the assay plate wells were washed twice with Tris buffer (20 mM Tris-HCl pH 7.5; 60 mM KCl, 5 mM MgCl2) and subsequently measured for 500 sec per well in a LUMIstar OPTIMA (BMG).
# [4] = target: T1, RORgamma ligand binding domain; assay: TR-FRET assay variation: agonist titration on top of saturating antagonist (4 μM LE540); format: biochemical; design: made in house; host or cells: E. coli BL21(DE3)
# Text: as §1
# In a variation of the assay described above, an antagonistic compound was added in a saturating concentration (4 μM) to the assay mix. Then the agonistic compounds were diluted and the assay was equilibrated for one hour in the dark.
# [5] = Homo sapiens, PBMC, 0.3 μM compound, stimulated PBMCs, read-out: percentage of IL-17 inhibition
# [6] = agonistic, peptide TIF2(628-658), read-out: EC50
# [7] = agonistic, assay includes 4 μM LE540, peptide TIF2(628-658), read-out: apparent EC50
IC50 ([2]; peptide SRC1(676-700)),IC50 ([2]; peptide TIF2(628-658)),apparent potency and efficacy of displacement [3],displacement of 3H-25-hydroxycholesterol bound to RORgamma-LBD [3],Compound,production of IL-17 by human PBMCs (qualitative) ([1]; stimulated PBMCs),"EC50 [2, 6]","EC50 [4, 7]",further results
19.3 µM,13.2 µM,,,CN1c2cc3c(cc2N=C(c2ccc(C(=O)O)cc2)c2ccccc21)C(C)(C)CCC3(C)C [LE135],inhibit the production of IL-17,,,"inhibition at 0.3 µM [1, 5]: 35.8%; inhibition at 1 µM ([1]; Homo sapiens, PBMC, 1 μM compound, stimulated PBMCs, read-out: percentage of IL-17 inhibition): 61.9%; inhibition at 3 µM ([1]; Homo sapiens, PBMC, 3 μM compound, stimulated PBMCs, read-out: percentage of IL-17 inhibition): 75.9%"
,,,,C[C@@H](CO)CCC[C@@H](C)[C@H]1CC[C@H]2[C@@H]3CC=C4C[C@@H](O)CC[C@]4(C)[C@H]3CC[C@]12C [(25R)-26-Hydroxycholesterol],,0.0141 µM,0.146 µM,
,,,,C[C@H](CCC(=O)N(C)C)[C@H]1CC[C@H]2[C@@H]3CC=C4C[C@@H](O)CC[C@]4(C)[C@H]3CC[C@]12C [DMHCA],,0.0107 µM,0.085 µM,
12.2 µM,11.3 µM,lowest potency and efficacy,able to displace,CC(C)(C)c1cc(C(=O)C=Cc2ccc(C(=O)O)cc2)cc(C(C)(C)C)c1 [Ch55],,,,displacement of 3H-25-hydroxycholesterol bound to RORgamma-LBD ([3]; listed as CH55): dose-dependent competitive displacement
8.6 µM,8.2 µM,less potent but seems rather efficient,dose-dependent competitive displacement,C/C(=C\c1ccc(C(=O)O)cc1)c1ccc2c(c1)C(C)(C)CCC2(C)C [TTNPB],,,,displacement of 3H-25-hydroxycholesterol bound to RORgamma-LBD ([3]; listed as TTNBP): able to displace
23.4 µM,19.8 µM,,,Am580,inhibit the production of IL-17,,,"level of IL-17 ([1]; 1 μM compound, stimulated PBMCs): within the control range; level of IL-17 ([1]; 5 μM compound, stimulated PBMCs): within the control range; percentage of IL-17 inhibition ([1]; 10 μM compound, stimulated PBMCs): 69.73%"
,,,,COC(=O)CC[C@@H](C)[C@H]1CC[C@H]2[C@@H]3CC=C4C[C@@H](O)CC[C@]4(C)[C@H]3CC[C@]12C [Cholenic Acid Methyl Ester],,0.0275 µM,0.311 µM,"EC50 ([2]; agonistic, peptide TIF2(628-658), listed as cholenic acid methyl ester, read-out: EC50): 0.0277 µM"
,,,,CC(C)CC[C@@H](O)[C@@H](C)[C@H]1CC[C@H]2[C@@H]3CC=C4C[C@@H](O)CC[C@]4(C)[C@H]3CC[C@]12C [22R-Hydroxycholesterol],,,,EC50 [2]: 0.0165 µM; EC50 [4]: 0.154 µM

Compound,IC50 ([2]; peptide SRC1(676-700)),IC50 ([2]; peptide TIF2(628-658)),apparent potency and efficacy of displacement [3],displacement of 3H-25-hydroxycholesterol bound to RORgamma-LBD [3],production of IL-17 by human PBMCs (qualitative) ([1]; stimulated PBMCs),"EC50 [2, 6]","EC50 [4, 7]",further results
CN1c2cc3c(cc2N=C(c2ccc(C(=O)O)cc2)c2ccc4ccccc4c21)C(C)(C)CCC3(C)C [LE540],3.6 µM,4.9 µM,highest,able to displace; also recorded: dose-dependent competitive displacement,inhibit the production of IL-17,,,"mean concentration of IL-17 ([1]; 0.1 μM compound): 659.39 pg/mL; mean concentration of IL-17 ([1]; 0.3 μM compound): 289.69 pg/mL; inhibition at 0.1 µM ([1]; Homo sapiens, PBMC, 0.1 μM compound, stimulated PBMCs, read-out: percentage of IL-17 inhibition): 34.3%; inhibition at 0.3 µM [1, 5]: 71.1%"
